Assay results from US20190175557A1, “COMPOUNDS USEFUL FOR DECREASING INTERFERON LEVEL” (priority 2016, published 2019).
Read-outs that look alike come from different tables or passages of the source.

Columns and labels:
[1] = system: HIV or LPS stimulated monocytes; test: IFN-γ mRNA in monocytes stimulated with HIV or LPS (RT-qPCR); assay type: cell-based; conditions: RT-qPCR normalized to RPL13A
Description: Data shown are representative of two independent experiments.
Monocytes were pre-incubated with clobenpropit (CB), IT1t or chloroquine before being activated by HIV and LPS. IFN-γ levels were measured by RT-qPCR and normalized to RPL13A mRNA expression.

[2] = system: NK cells activated by K562 cells; test: IFN-γ, TNF-α and CD107a expression by NK cells activated by K562 cells (flow cytometry); assay type: cell-based; conditions: treated 1 hour, then activated by K562 cells
flu-exposed human PBMC = assay type: cell-based
[3] = system: human Flu-activated primary PBMC; test: cells; assay type: cell-based
CXCR4 [4] = target: T1, CXCR4 (Homo sapiens, UniProt P61073)
T1 sequence (P61073 whole entry): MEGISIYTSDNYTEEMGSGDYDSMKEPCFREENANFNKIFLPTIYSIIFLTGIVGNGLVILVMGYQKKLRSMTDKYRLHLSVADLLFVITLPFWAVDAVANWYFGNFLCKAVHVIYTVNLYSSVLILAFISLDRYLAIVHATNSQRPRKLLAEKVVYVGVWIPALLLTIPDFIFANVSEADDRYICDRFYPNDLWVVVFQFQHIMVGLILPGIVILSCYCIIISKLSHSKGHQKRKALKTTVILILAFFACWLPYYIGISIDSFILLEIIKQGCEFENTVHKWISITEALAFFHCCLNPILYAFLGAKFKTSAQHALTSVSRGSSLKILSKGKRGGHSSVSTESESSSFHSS

pDC = test: Cytotoxicity of compounds on cultured pDC
CXCR4 [5] = target: T1, CXCR4; conditions: Jurkat cells, 1 mM, 4° C. for 30 min
[6] = system: 129S8 mice infected with Influenza A virus strain X31 (H3N2); conditions: mouse, in vivo
H4R = H4R (Homo sapiens, UniProt Q9H3N8); assay type: cell-based; conditions: H4R siRNA, human primary pDC
Sequence of H4R (Q9H3N8 whole entry): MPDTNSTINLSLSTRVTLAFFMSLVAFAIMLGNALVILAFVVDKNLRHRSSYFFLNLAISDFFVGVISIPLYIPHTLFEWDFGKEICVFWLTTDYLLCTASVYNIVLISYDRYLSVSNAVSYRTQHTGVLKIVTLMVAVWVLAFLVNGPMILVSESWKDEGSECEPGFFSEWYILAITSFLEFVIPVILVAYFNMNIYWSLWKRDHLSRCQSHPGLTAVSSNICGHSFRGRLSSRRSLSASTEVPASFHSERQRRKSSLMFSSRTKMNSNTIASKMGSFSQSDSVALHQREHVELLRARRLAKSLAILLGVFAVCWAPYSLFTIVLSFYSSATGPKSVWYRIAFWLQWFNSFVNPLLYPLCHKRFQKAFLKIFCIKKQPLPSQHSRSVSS

HIV-stimulated pDC [7] = test: IFN-α / type I IFN production by HIV-stimulated purified pDC (ELISA); assay type: cell-based, human
[8] = system: collagen-induced arthritis in DBA1/J mice; test: Therapeutic collagen-induced arthritis model in DBA1/J mice; assay type: in vivo, mouse; conditions: for inhibition of disease severity: Day 28-42, at termination (Day 42); for average AI (Arthritic Index): maximum AI=16
Description: 80 DBA1/J mice (male, 7-8 weeks) was received and placed in quarantine for 3 days with daily inspections. Ear tag mice for individual identification.
Individual mouse weights were recorded. Hind paw thickness were recorded by digital caliper. 80 mice subcutaneous were injected with collagen/CFA emulsion (0.05 ml/mouse; 100 μg/mouse collagens in CFA) using a 1 ml syringe fitted with a 25G needle. Mice returned to cages.
80 mice were boosted with collagen/ICFA emulsion. Then their individual weights were recorded.
Mice were scored for signs of arthritis:
7) Calculate Arthritic Index (AI) by addition of individual paw scores and record.
Mice with an AI score within a range of 2-6 were selected for assignment to groups for therapeutic dosing as in Table 4.
Begin intraperitoneal (IP) dosing once daily (QD) according to Table 4.
The compounds clobenpropit (CB) and IT1t were tested. CB and IT1t were stored at 4° C. […] These compounds were doses 7 days per week (Saturday and Sunday included) daily for 14 days.
Mice were weighed, scored for signs or arthritis, and hind paw thickness is measured by digital caliper three-times weekly (Monday, Wednesday and Friday). Any adverse reactions to treatment were recorded.
Termination: AI score were recorded for each limb. The paw thickness of the hind limbs is measured with digital caliper. Mice were anesthetized and exsanguinated into pre-chilled EDTA-tubes.
2) Plasma was assayed by ELISA for IL-1β, IL-6, TRAIL. Then, all limbs were collected.

HIV-stimulated pDC [9] = test: Activation markers and cytokine mRNA in HIV-stimulated pDC (RT-qPCR, flow cytometry); assay type: cell-based, human
[10] = system: pristane-induced SLE in Balb/c mice; test: Pristane-induced systemic lupus erythematosus (SLE) model in Balb/c mice; assay type: in vivo, mouse; conditions: 3, 10, 30 mg/kg IP QD
Description: Receive and quarantine (SOP 560) 70 female Balb/C (20-25 g) mice and house in filter-topped cages supplied with autoclaved bedding.
The animals are weighed, ear tagged for individual identification and randomly assigned to 8 treatment groups of 8 animals each and two groups of 3 animals (for pre-tolerance at 30 mg/kg of survival).
The test items compounds clobenpropit (CB) and IT1t are stored at 4° C.
Mouse weights are recorded twice a week, and daily observations for clinical signs.
Collected sera are stored at −80° C. for measurements of autoantibody on weeks 4, 8 and 10. (Predose will kept at −80° C. for potential use). Anti-dsDNA level is a standard screening readout for identifying efficacy of test compounds in a SLE model.
Measurements: weeks 4, 8, 10: (1) autoantibody (anti-dsDNA), collagen and cytokines TNFα, IL-6 and TRAIL by ELISA and (2) ANA antibody by IFA.

[11] = Solubility of test compounds
CXCR4 [12] = target: T1, CXCR4; test: CXCR4 internalization and co-localization in pDC (microscopy); assay type: cell-based; conditions: confocal microscopy
Description: Cells were then incubated with anti-CXCR4 antibody (Biolegend, San Diego, Calif.) in saturation buffer PBS-BSA 0.5% for membrane staining or in permeabilizing buffer containing 1% saponin with monoclonal antibody anti-TRAIL (Biolegend, San Diego, Calif., USA). […] Nucleus was stained using DAPI (Molecular Probes, Paisley, UK). Slides were mounted with Fluoromount-G (eBioscience, CA, USA) and scanned with a Nikon Eclipse 90i Upright microscope (Nikon Instruments Europe, Badhoevedorp, The Netherlands) using a 100× Plan Apo VC piezo objective (NA 1.4) and Chroma bloc filters (ET-DAPI, ET-GFP) and were subsequently deconvoluted with a Meinel algorithm and 8 iterations and analyzed using Metamorph® (MDS Analytical Technologies, Winnersh, UK). TRAIL/DAPI/Overlay/Confocal plane: Representative 2D focal plan. Overlay with bright: Bright. […]
In other cases, cells were cultured overnight in media alone then were washed in ice-cold PBS-BSA 0.2% and stained with CXCR4 antibody (R&D Systems) for 1 hour at 4° C. […] Data are expressed as the mean percentage ±SEM mean channel fluorescence intensity (MFI) values for residual surface expression and intracellular staining. […]
7 pictures were taken from each slide for each Z section framing the nucleus. Quantification of the colocalization in the cytoplasm of purified pDC using Mander's Coefficient was obtained after analyze by JACoP pluging in ImageJ. […]

HIV-stimulated pDC [13] = test: TRAIL relocalization to the membrane of HIV-stimulated pDC (3D microscopy); assay type: cell-based, human
Description: Cells were then incubated with anti-CXCR4 antibody (Biolegend, San Diego, Calif.) in saturation buffer PBS-BSA 0.5% for membrane staining or in permeabilizing buffer containing 1% saponin with monoclonal antibody anti-TRAIL (Biolegend, San Diego, Calif., USA). […] Nucleus was stained using DAPI (Molecular Probes, Paisley, UK). Slides were mounted with Fluoromount-G (eBioscience, CA, USA) and scanned with a Nikon Eclipse 90i Upright microscope (Nikon Instruments Europe, Badhoevedorp, The Netherlands) using a 100× Plan Apo VC piezo objective (NA 1.4) and Chroma bloc filters (ET-DAPI, ET-GFP) and were subsequently deconvoluted with a Meinel algorithm and 8 iterations and analyzed using Metamorph® (MDS Analytical Technologies, Winnersh, UK). TRAIL/DAPI/Overlay/Confocal plane: Representative 2D focal plan. Overlay with bright: Bright. Reconvolution overlays: 2D projections of the maximum intensity pixels along the Z-axis.
7 pictures were taken from each slide for each Z section framing the nucleus. Quantification of the colocalization in the cytoplasm of purified pDC using Mander's Coefficient was obtained after analyze by JACoP pluging in ImageJ.

[14] = 3 mg/kg IP once daily, at termination (Day 42)
[15] = 10 mg/kg IP once daily, at termination
[16] = 30 mg/kg IP once daily, at termination

In the case of `CCN(CC)CCCC(C)Nc1ccnc2cc(Cl)ccc12` (stereo not drawn) [chloroquine], the “IFN-γ expression by HIV or LPS stimulated monocytes” value [1] is reported as “inhibit”.

With `NCCCNCCCCNCCCN` [spermin, spermine] the “IFN-γ, TNF-α and CD107a expression by NK cells” value [2] was “decrease”.

`NCCc1c[nH]c2ccc(O)cc12` [Serotonin, serotonin] gave a CC50 (in vitro) of 1500 ± 54 µM.

In the case of `NCCc1c[nH]cn1` [Histamine], the “IFN-α/β and IFN-λ2/3 mRNA levels” value (flu-exposed human PBMC) is reported as “significantly reduced”, the EC50 [3] is reported as 1.4 ± 1 µM and the “effect of CXCR4 gene silencing on the inhibitory effect on type I IFN and TRAIL” value (CXCR4 [4]; pDC stimulated by CXCR4-tropic HIV-1) is reported as “suppressed”. The “cytotoxicity on purified pDC” value (pDC; 10 μM) was “without obvious toxicity”, the “binding of the CXCR4 antibody 12G5 on T cells” value (CXCR4 [5]) was “inhibited” and the “IFN-α, IFN-β and IFN-λ2/3 protein production in bronchioalveolar lavage (BAL) fluid” value [6] was “a trend towards IFN reduction that was not statistically significant”. The “effect of H4R knock down on inhibitory activity on IFN-α, IFN-β and TRAIL productions by HIV-stimulated pDC” value (H4R) was “did not block”, the “inhibitory effect on pDC activation / IFN-α production by HIV-1” value (HIV-stimulated pDC [7]; purified pDC, 10 μM) was “active” and the “Therapeutic index (Ratio TC50/EC50)” value (human primary PBMC) was under 1500. For the same molecule, the TC50 (human primary PBMC; human) was under 2000 µM.

With `CC1(C)CN2C(CS/C(=N\C3CCCCC3)NC3CCCCC3)=CSC2=N1` [IT1t] the EC50 ([3]; read-out: EC50) was 7.1 ± 1 µM, the “type I IFN reduction in CXCR4 siRNA-treated cells” value (CXCR4 [4]; pDC stimulated with HIV X4 or HIV R5, active with control siRNA) was “lost its biological activity” and the “IFN-γ expression by HIV or LPS stimulated monocytes” value [1] was “inhibit”. For the same molecule, the CC50 (in vitro; human) was 238 ± 21 µM, the “toxicity at the efficient concentrations” value (pDC) was “not toxic” and the “toxicity at higher concentrations” value (pDC; diluted in DMSO) was “some toxicity”. The “reduction in terminal plasma concentration of IL-1β” value (“reduction … of IL-1β” for short) ([8]; 3 mg/kg IP once daily) was 49%, the “reduction in terminal plasma concentration of TRAIL” value (shortened to “reduction … of TRAIL”) ([8]; 3 mg/kg IP once daily) was 62% and the “inhibition of disease severity” value ([8]; 3 mg/kg IP once daily) was “no amelioratory effect”. The “average AI (Arthritic Index)” value [8, 14] was 13.1, the “reduction … of IL-1β” value ([8]; 10 mg/kg IP once daily) was 53% and the “reduction in terminal plasma concentration of IL-6” value (“reduction … of IL-6” below) ([8]; 10 mg/kg IP once daily) was 30%. The “reduction … of TRAIL” value ([8]; 10 mg/kg IP once daily) was 46%, the “reduction in disease severity” value [8, 15] was 40% and the “average AI (Arthritic Index)” value [8, 15] was 7.9. The “reduction … of IL-1β” value ([8]; 30 mg/kg IP once daily) was 69%, the “reduction … of IL-6” value ([8]; 30 mg/kg IP once daily) was 66% and the “reduction … of TRAIL” value ([8]; 30 mg/kg IP once daily) was 51%. For the same molecule, the “reduction in disease severity” value [8, 16] was 63%, the “average AI (Arthritic Index)” value [8, 16] was 4.9 and the “disease progression over the dose range” value ([8]; 3, 10 and 30 mg/kg daily intraperitoneal injection) was “dose-dependent inhibition”. For the same molecule, the “IFN-γ, TNF-α and CD107a expression by NK cells” value [2] was “decrease”, the “effect on cytokine production of activated pDC compared with CB” value (HIV-stimulated pDC [9]) was “stronger effect” and the “IFN-α, IFN-β and TRAIL expression by HIV-stimulated pDC” value (HIV-stimulated pDC [9]; 1 hour pre-culture, HIV X4) was “inhibited”. The “symptoms of pristane-Induced Systemic Lupus Erythematosus” value [10] was “reduce symptoms”, the ds-DNA level ([10]; compared to group 1 (vehicle)) was “inhibition” and the solubility ([11]; PBS, aqueous buffer) was over 50 mg/mL. For the same molecule, the solubility ([11]; water) was over 50 mg/mL and the “Therapeutic index (Ratio TC50/EC50)” value (human primary PBMC) was 33.5.

With CXCL12: CXCR4 natural ligand the “IFN-α/β mRNA expressions by HIV stimulated pDC” value (HIV-stimulated pDC [9]; 62.5 nM, pre-incubation 15 min, 30 min, 60 min) was “did not reduce” and the “type I IFN mRNA expression by HIV stimulated pDC” value (HIV-stimulated pDC [9]; 10 μM) was “did not inhibit”.

For `NCCc1cc(=O)oc2c3c4c(cc12)CCCN4CCC3` [FFN-511, FFN511], the “cytotoxic effect on pDC” value (pDC; 50 μM) was “without any obvious cytotoxic effect”, the “co-localization with CXCR4 in pDC” value (CXCR4 [12]) was “strong degree of co-localization” and the “iNOS or IL-15 gene expression” value (HIV-stimulated pDC [9]; HIV-1-stimulated pDC, RT-qPCR) was “neither CB nor FFN-511 affected”. The “transcription of virus-induced genes (TRAIL, IFNs, IL6, IL8, IL10, CXCL10, ISG56) induced in pDC by HIV-1” value (HIV-stimulated pDC [9]; RT-qPCR profiling, normalized to RPL13A) was “dramatically inhibited”, the “TRAIL localization to the cell membrane in HIV-stimulated pDC” value (HIV-stimulated pDC [13]) was “significantly inhibited” and the “IFN type I production by HIV-stimulated pDC” value (HIV-stimulated pDC [7]; 50 μM) was “strongly reduced”.

In the case of `C[C@]12C=CC(=O)C=C1CC[C@@H]1[C@@H]2[C@@H](O)C[C@@]2(C)[C@H]1CC[C@]2(O)C(=O)CO` [prednisolone], the “reduction … of IL-1β” value ([8]; 3 mg/kg IP once daily) is reported as 62%, the “reduction … of IL-6” value ([8]; 3 mg/kg IP once daily) is reported as 79% and the “reduction … of TRAIL” value ([8]; 3 mg/kg IP once daily) is reported as 72%. For the same molecule, the “inhibition of disease severity” value ([8]; 3 mg/kg IP once daily) was 82% and the “average AI (Arthritic Index)” value [8, 14] was 2.4.

With `c1cc(CN2CCCNCCNCCCNCC2)ccc1CN1CCCNCCNCCCNCC1` [AMD3100] the “type I IFN and TRAIL expression by HIV-activated pDC, compound alone” value (HIV-stimulated pDC [9]) was “did not block” and the “effect on biological activities of histamine and CB on HIV activated-pDC” value (HIV-stimulated pDC [9]; pre-incubation 1 hour (20 μM) before histamine or CB) was “drastically abolished”.
